The values below come from patent US20050153395A1, “Unique integrin binding site in connective tissue growth factor (CTGF)” (CHILDREN'S HOSPITAL INC., priority 2003, published 2005).

The subject of assay [1] is vascular endothelial cells, intestinal epithelial, and hepatic stellate cells. In words: Adhesion of cell types to 10 kDa CTGF. It is filed as cell-based. How it is done:
To confirm the functionality of residues 247-349 of SEQ ID NO: 1 (containing module 4 alone; denoted as CTGF4), this region of CTGF was produced as a maltose binding protein (MBP) fusion protein in E. coli as described in Ball et al., J Endocrinol; 176: R1-R7, 2003. […] HPLC-purified 10 kDa CTGF promoted 3T3 cell adhesion in a dose-dependent manner, with maximal binding at 8 ng/well. […] Also, the binding of all cell types to 10 kDa CTGF was reduced by EDTA treatment, though this effect was relatively modest in 3T3 cells. Thus, E coli-derived CTGF isoforms comprising essentially module 4 are intrinsically functional in the absence of the other constituent modules of CTGF.

Assay [2] has as its system hepatic stellate cells (HSC). Briefly: HSC adhesion assay on coated wells (CyQUANT fluorescence). Conditions: for inhibition of CTGF4-mediated HSC adhesion: wells coated 2 μg/ml CTGF4, antibody/IgG 25 μg/ml. It is filed as cell-based, rat. How it is done:
CTGF4 is known to be expressed in hepatic stellate cells (HSC) and to induce proliferation and extracellular matrix (ECM) production in these cells. (Williams et al., J Hepatol 32, 754-761, 2000; Paradis et al., Lab Invest 82, 767-774, 2002). The following experiments were carried out to determine if HSCs adhere to CTGF. HSCs were isolated from normal Sprague-Dowley rate by sequential perfusion with pronase/collagenase and purified by density gradient separation as described in Vyas et al. (Gastroenterology 109: 889-898, 1995).
The cells were subsequently detached using 1 mM EDTA PBS (137 mM NaCl, 2.7 mM KCl, 4.3 mM Na2HPO4, 1.4 mM KH2PO4, pH 7.3), washed twice in DMEM and resuspended in serum free medium containing 0.5% BSA. The cells-were plated (1.25×10^4 cells/well) in a 96 well plate coated with one of the following: 2 μg/ml CTGF isoform (CTGF1-4, CTGF3-4, CTGF4), 1 μg/ml laminin, or 4 μg/ml vitronectin and incubated for 20 minutes at 37° C. Subsequently the cells were washed with PBS and the adherent cells were fixed with 10% formalin and stained with CyQUANT GR dye/cell lysis buffer (Molecular Probes , Eugene, Oreg.) according to the manufacturer's instructions. The number of cells that adhered to CTGF isoforms or ECM protein was quantified by measuring the sample fluorescence intensity at Ex/Em: 480/520 nm using a micro-plate reader (CytoFluor™ 2350).
To determine if the CTGF-mediated HSC adhesion was carried out through integrin receptors, the experiment described above were carried out in the presence and absence of 10 mM EDTA. […] It is widely believed that Mn^2+ induces conformational shifts that mimic the physiological activation of β1 and β3 integrins (Roberts et al., J Biol Chem 278: 1975-1985, 2003, van der Pauw et al., J Periodontal Res 37: 317-323, 2002) as Mn^2+-induced activation leads to enhanced ligand-binding affinity and cell adhesion (Mould et al., J Biol Chem 277: 19800-19805, 2002, Loftus & Liddington J Clin Invest 100: S77-81, 1997, Lin et al., J Biol Chem 272: 14236-14243, […]).
Synthetic peptides GRGDsp (1 mM), GRGEsp (1 mM), Echistatin (2 μM) or vehicle buffer alone were added to the, HSC culture medium 30 minutes prior to plating.
In addition, adhesion assays as described in Example 1 were carried out in CTGF4 coated plates in the presence and absence of monoclonal antibody specific for αvβ3 (LM609).

Assay [3] has as its system pancreatic stellate cells (PSC). In words: PSC adhesion assay on coated wells. It is filed as cell-based, rat. Conditions: for inhibition of PSC adhesion to CTGF4: 2 μg/ml CTGF4 coat, peptides 35 μM; for inhibition of PSC adhesion to CTGF4 / inhibition of PSC adhesion to CTGF1-4: antibodies 25 μg/ml, heparin 2 μg/ml. The source says:
Rat PSCs were isolated by a modification of the method described by Phillips et al., Gut; 52:677-82, 2003. Briefly, pancreatic tissue was digested in situ with 0.03% collagenase P (Roche, Indianapolis, Ind.) in HBSS by perfusion through the thoracic aorta. This protocol was approved by the Institutional Animal Care and Use Committee of Children's Research Institute, Columbus, Ohio. The tissue was pooled, minced with scissors, and then digested with 0.05% collagenase P, 0.02% protease XIV (Sigma, St. Louis), and DNase I (Roche, Indianapolis, Ind.) in HBSS. The resulting cell suspension was centrifuged in a 12% Optiprep gradient at 1400 g for 14 minutes. Stellate cells separated into a hazy band just above the interface of a the gradient and the aqueous buffer. This band was harvested, and the cells washed and resuspended in DMEM supplemented with 25 mM Hepes buffer, 10% FBS, and 100 U/ml penicillin in, 100 μg/ml streptomycin. The, cells were maintained at 37° C. in a humidified atmosphere of 5% CO2/95% air.
The ability of activated PSC to adhere to non-tissue culture plastic microtiter wells coated with recombinant CTGF1-4, CTGF3-4 or CTGF4 was investigated. The solid phase binding assay was carried out as described in Example 2. […] To assess the possibility that CTGF-mediated PSC adhesion involved cell surface integrins, the effect of divalent cations on cell adhesion was examined, as described in Example 2. […]
Because CTGF is a heparin-binding protein, this property was further investigated.
To identify the peptides that bind to PSCs, cell adhesion assays were carried out as described in Example 3.
To further investigate the peptide binding, P2 or P5 (10 μM) or vehicle buffer alone (no add) were added to PSC cell suspensions for 30 minutes at room temperature.

Assay [4] has as its target integrin α5β1 (Homo sapiens, UniProt P05556+P08648). In words: Solid phase ELISA of integrin α5β1 binding. The following applies: peptides 35 μM; EDTA 5 mM. How it is done: In a second approach, a solid phase binding assay was used in which CTGF1-4 or FN were individually coated onto microtiter wells that were subsequently incubated with purified integrin α5β1. The presence of immobilized integrin α5β1 was detected by ELISA using an anti-integrin α5β1 antibody similar to the methods described in Example 3 above. In addition, CTGF1-4 bound to integrin α5β1 in a dose-dependent manner, with maximal binding at 2 μg/ml CTGF. This level of CTGF1-4 (2 μg/ml) binding was the same as that elicited by 2 μg/ml FN, a well known ligand of integrin α5β1. In a similar experiment, 2 μg/ml of CTGF1-4;CTGF3-4 or CTGF4 were individually precoated onto microtiter wells. Using the solid-phase assay, integrin α5β1 bound to CTGF1-4, CTGF3-4 or CTGF4 See FIG. 5 (Panel B).
To directly analyze whether α5β1 integrin binds to CTGF4, microtiter wells coated with CTGF4 (2 μg/ml) or FN (4 μg/ml) were used in an ELISA assay to detect integrin binding, as described in Example 3. For these assays, 1 μg/ml integrin α5β1, alone or in the presence of 35 μM of P2peptide (CTGF[257-272]) and 35 μM of P5 peptide (CTGF [285-291]), were added to the precoated plates. […] The binding between CTGF4 and integrin α5 β1 was blocked by peptide P5 (CTGF [285-291]) or peptide P2 (CTGF[257-272]). […]
For orientation: In an ELISA, binding on a coated surface is turned into a signal by an enzyme label.

The subject of assay [5] is CTGF. Briefly: CTGF production by PSCs (immunoprecipitation). It is filed as cell-based, rat. The following applies: TGF-β1 20 ng/ml; P<0.01.
In assay [6] the test system is CTGF promoter. Briefly: CTGF promoter luciferase reporter pCCN2-Luc in PSCs. Type of assay: cell-based, rat. How it is done:
TGF-β1 is a well characterized transcriptional activator of CTGF in other cell types. To further examine the mechanism by which TGF-β1 and other fibrogenic stimulators could influence CTGF production in PSCs, CTGF promoter activity in PSCs was evaluated using the luciferase reporter, pCCN2-Luc, as described in Gao et al., (J Hepatol 2004;40:431-8).
In general terms: In a reporter assay the amount or activity of a reporter protein is the signal.

The subject of assay [7] is PSCs. Briefly: PSC chemotaxis (migration) assay in culture insert. It is filed as cell-based, rat. How it is done:
To examine whether CTGF plays a role in PSC migration, a chemotaxis assay was carried out in which the migratory behavior of PSCs in the upper chamber of a culture insert was assessed following addition of CTGF to the lower chamber. […] PSC migration was also promoted by FN, PDGF or TGF-β1.

Assay [8] deals with PSCs. Briefly: PSC DNA synthesis, [3H]thymidine incorporation. Type of assay: cell-based, rat. Conditions: 24 hours; CTGF1-4 effect in 0.1% serum, not in serum-free medium. How it is done:
To measure the effect of CTGF on cell proliferation, DNA synthesis was measured by ^3H incorporation in PSCs. The cells were incubated for 24 hours with 0.2 μCi [^3H] thymidine in each well (24-well plate). The incorporation of [^3H] thymidine into PSC DNA was determined using a scintillation counter after the cells had been washed with PBS, fixed with 10% methanol, treated with cold 5% trichloroacetic acid, and lysed in 0.3 N NaOH.
(In general: Dividing cells build labelled thymidine or BrdU into new DNA.)

Where [9] appears, read: EDTA 10 mM, GRGDsp 1 mM, Echistatin 2 μM, heparin 2 μg/ml.

integrin α5β1, sequence (P08648 42-894 limits assumed): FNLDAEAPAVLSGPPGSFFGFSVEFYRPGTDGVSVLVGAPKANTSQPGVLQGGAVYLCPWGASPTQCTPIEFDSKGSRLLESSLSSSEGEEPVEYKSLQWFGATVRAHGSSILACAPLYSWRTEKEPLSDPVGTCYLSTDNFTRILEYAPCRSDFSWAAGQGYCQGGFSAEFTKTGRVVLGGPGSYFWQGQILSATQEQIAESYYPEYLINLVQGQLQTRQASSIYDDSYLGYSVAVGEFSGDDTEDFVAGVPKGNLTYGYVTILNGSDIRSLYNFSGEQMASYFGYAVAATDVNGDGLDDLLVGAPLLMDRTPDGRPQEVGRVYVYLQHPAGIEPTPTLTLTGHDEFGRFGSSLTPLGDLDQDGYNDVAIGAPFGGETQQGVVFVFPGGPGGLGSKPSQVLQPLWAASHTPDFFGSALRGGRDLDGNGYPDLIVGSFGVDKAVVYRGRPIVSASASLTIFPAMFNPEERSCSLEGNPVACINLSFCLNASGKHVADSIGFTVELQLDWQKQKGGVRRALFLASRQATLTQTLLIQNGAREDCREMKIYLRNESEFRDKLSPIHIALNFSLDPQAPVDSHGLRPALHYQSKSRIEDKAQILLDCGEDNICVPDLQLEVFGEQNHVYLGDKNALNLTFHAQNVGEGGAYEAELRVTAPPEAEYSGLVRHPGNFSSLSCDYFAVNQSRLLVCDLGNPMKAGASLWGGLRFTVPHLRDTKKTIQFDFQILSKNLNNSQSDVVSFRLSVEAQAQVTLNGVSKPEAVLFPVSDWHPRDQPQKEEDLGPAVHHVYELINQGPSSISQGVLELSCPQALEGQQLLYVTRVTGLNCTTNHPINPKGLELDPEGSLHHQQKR
integrin α5β1, sequence (P08648 895-1049 partner limits assumed): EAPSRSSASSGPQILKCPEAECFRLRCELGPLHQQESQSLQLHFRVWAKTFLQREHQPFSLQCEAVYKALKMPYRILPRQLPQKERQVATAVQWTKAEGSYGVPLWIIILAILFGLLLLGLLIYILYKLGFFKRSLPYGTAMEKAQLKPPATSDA
integrin α5β1, sequence (P05556 21-798): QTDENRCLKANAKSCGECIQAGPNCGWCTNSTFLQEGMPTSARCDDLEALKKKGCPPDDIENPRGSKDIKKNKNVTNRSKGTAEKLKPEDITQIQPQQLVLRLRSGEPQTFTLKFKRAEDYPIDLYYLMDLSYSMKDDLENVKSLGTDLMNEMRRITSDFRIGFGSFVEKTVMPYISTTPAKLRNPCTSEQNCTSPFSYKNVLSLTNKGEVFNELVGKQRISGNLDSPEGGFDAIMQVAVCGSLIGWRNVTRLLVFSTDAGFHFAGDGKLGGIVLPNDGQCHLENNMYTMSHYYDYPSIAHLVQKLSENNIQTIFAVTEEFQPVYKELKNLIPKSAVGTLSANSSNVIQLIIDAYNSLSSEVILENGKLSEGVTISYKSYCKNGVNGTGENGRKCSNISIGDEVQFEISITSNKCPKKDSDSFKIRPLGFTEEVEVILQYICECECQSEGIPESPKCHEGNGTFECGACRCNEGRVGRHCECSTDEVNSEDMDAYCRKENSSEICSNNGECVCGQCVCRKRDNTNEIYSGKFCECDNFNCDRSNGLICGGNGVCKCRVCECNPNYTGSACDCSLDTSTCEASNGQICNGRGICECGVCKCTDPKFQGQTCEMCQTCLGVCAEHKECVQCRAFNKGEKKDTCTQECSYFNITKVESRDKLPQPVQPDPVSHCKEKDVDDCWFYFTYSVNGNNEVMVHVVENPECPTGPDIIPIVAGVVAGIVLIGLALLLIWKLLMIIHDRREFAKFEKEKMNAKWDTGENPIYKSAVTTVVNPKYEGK

Regarding `O=C(O)CN(CCN(CC(=O)O)CC(=O)O)CC(=O)O` [EDTA, reference compound], the “binding of all cell types to 10 kDa CTGF after EDTA treatment” value in assay [1] (effect relatively modest in 3T3 cells) is recorded as “reduced”. In assay [2] (wells coated 2 μg/ml CTGF1-4, EDTA 10 mM, GRGDsp 1 mM, Echistatin 2 μM), the “inhibition of CTGF1-4-mediated HSC adhesion” value is given as 50%. In addition, the “inhibition of CTGF3-4-mediated HSC adhesion” value in assay [2] (wells coated 2 μg/ml CTGF3-4, EDTA 10 mM, GRGDsp 1 mM, Echistatin 2 μM) came out at 50%. Also, in assay [2] (setting [9]), the “inhibition of CTGF4-mediated HSC adhesion” value is listed as 90%. In assay [3] (EDTA 5 mM), the “inhibition of PSC adhesion to CTGF4” value is “significantly decreased”, the “inhibition of PSC adhesion to CTGF3-4” value is listed as “significantly decreased” and the “inhibition of PSC adhesion to CTGF1-4” value was “significantly decreased”. For the same compound, the “inhibition of binding between CTGF4 and integrin α5β1” value in assay [4] is listed as “blocked”.

Regarding “TGF-β1: transcriptional activator of CTGF”, the “CTGF1-4, CTGF3-4 and CTGF4 levels in cell lysates and conditioned medium” value in assay [5] is “significantly increased”. Besides, the “activity of pCCN2-Luc in PSC” value in assay [6] (P<0.01 compared with no stimulation) is reported as “significantly increased”. In assay [6] (P<0.05), the “activation of pCCN2-Luc compared among four stimulators” value is on record as “strongest activation”. Further, the PSC migration result in assay [7] (substance in lower chamber) was “promoted”. Besides, in assay [8], the “PSC proliferation (DNA synthesis)” value is given as “did not induce proliferation”.

Take heparin: the “inhibition of binding of each cell type to 10 kDa CTGF” value in assay [1] (5 μg/ml heparin, each cell type incl. 3T3) is “completely inhibited”. The “inhibition of HSC adherence to CTGF[257-272]” value in assay [2] (peptide-coated wells, heparin 2 μg/ml) is on record as “abrogated”. Further, the “inhibition of CTGF4-mediated HSC adhesion” value in assay [2] (setting [9]) is given as “completely abrogated”. Also, in assay [2] (wells coated 4 μg/ml vitronectin), the “inhibition of vitronectin-mediated HSC adhesion” value is recorded as “little effect”. Further, in assay [3] (EDTA 5 mM), the “inhibition of PSC adhesion to CTGF4” value is given as “blocked” and the “inhibition of PSC adhesion to CTGF1-4” value is “blocked”. The “inhibition of FN-mediated PSC adhesion” value in assay [3] (fibronectin coat) is reported as “little effect”. For the same compound, in assay [7] (CTGF1-4 or CTGF4), the “inhibition of PSC migration in response to CTGF” value is listed as “blocked”.
